Test results reported in article PMC11940309, “Endocrine-Disrupting Activities of Flavones on Steroid Receptors: Structural Requirements and Synthesis of Novel Flavone with Improved Estrogenic Activity” (Biomedicines, 2025).
Like-named read-outs stand apart in the source and are kept apart here.

What was measured:
human AR = biological target: T1, human AR (Homo sapiens, UniProt P10275); test: AR-mediated induction of PSA-luciferase reporter by R1881 in HeLa13 cells; format: cell-based; conditions: for inhibition at 1 µM / inhibition at 4 µM: read-out: % Inhibition of AR-Mediated Gene Induction
T1 construct: expressed in transfected cells; host or cells: HeLa13 (HeLa 13)
T1 sequence (P10275 1-920): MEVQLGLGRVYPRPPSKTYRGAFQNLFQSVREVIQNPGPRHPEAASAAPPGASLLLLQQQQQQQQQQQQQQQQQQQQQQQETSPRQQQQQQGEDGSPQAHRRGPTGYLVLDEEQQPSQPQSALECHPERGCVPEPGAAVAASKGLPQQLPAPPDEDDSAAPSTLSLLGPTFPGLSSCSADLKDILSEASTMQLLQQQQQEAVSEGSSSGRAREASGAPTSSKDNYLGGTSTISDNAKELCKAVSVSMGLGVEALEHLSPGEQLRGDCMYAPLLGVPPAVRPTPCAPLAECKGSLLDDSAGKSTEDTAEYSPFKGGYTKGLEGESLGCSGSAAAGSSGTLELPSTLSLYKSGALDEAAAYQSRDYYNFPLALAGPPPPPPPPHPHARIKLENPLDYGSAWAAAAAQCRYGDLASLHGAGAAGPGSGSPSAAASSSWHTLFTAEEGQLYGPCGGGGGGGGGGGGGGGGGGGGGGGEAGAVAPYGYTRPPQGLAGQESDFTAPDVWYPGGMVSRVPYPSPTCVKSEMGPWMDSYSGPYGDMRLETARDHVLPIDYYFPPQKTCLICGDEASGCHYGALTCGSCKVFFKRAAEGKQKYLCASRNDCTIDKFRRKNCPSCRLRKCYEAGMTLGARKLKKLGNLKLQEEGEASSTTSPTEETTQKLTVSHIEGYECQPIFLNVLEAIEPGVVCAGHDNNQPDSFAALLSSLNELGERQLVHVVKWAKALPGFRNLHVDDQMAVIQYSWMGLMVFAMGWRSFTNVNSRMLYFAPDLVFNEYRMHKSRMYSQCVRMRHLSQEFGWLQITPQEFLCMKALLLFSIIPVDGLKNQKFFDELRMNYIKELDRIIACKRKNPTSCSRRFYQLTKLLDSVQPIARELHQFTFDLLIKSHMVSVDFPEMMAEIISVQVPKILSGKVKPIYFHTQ
Text: (§1) The engineered T47D breast cancer cell lines employed for the assessment of flavonoid activity on glucocorticoid receptor (GR) and progesterone receptor (PR) signaling permitted the facile quantitation transcription of both an endogenous gene and a stably integrated reporter gene. […] The T47D K5pLuc cell line responds to progestins via induction of a stably integrated cytokeratin 5-luciferase reporter gene. […] For assessment of the effect of the test compounds on androgen receptor (AR) signaling, we used the HeLa13 cell line engineered to stably express human AR and a PSA-luciferase reporter gene containing a 4× multimerized PSA upstream enhancer ARE1 linked to the E4 TATA box and luciferase gene.
Experiments testing the effect of flavonoid on androgen receptor-mediated transcription employed HeLa 13 cells maintained in MEM medium supplemented with 10% FBS, 0.5 mg/mL G418, 0.05 mg/mL Hygromycin B, […], and streptomycin (100 μg/mL). For reporter gene experiments, cells were replated at a 1:5 dilution in MEM medium with 5% charcoal-stripped FBS and the antibiotics mentioned above. The medium was changed the next day. After 48 h, the cells were washed with PBSE, detached with phenol red-free trypsin, pelleted, resuspended and plated in 96 well plates as above. Hormone and flavonoid treatments were performed as described above with the HeLa 13 medium and charcoal-stripped FBS. When treated with hormone, the synthetic androgen, R1881, was used at 1.0 nM. Hormone treatment was for 20 h at which time cells were harvested for assay of luciferase.
(§2) For all cell lines, cell harvesting and the luminescence assay for alkaline phosphatase and/or luciferase were performed as previously described in detail. Each condition was performed in quadruplicate. […] Percent inhibition is 100 minus the percent induction.

[1] = biological target: T2, glucocorticoid receptor (GR) (Rattus norvegicus, UniProt P06536); test: GR-mediated induction of transcription by dexamethasone in T47D (A1-2) cells (luciferase reporter and endogenous alkaline phosphatase); format: cell-based, human; conditions: dexamethasone 1.0 nM; for inhibition at 4 µM / inhibition at 8 µM: T47D
T2 construct: host or cells: T47D (A1-2)
T2 sequence (P06536 1-795): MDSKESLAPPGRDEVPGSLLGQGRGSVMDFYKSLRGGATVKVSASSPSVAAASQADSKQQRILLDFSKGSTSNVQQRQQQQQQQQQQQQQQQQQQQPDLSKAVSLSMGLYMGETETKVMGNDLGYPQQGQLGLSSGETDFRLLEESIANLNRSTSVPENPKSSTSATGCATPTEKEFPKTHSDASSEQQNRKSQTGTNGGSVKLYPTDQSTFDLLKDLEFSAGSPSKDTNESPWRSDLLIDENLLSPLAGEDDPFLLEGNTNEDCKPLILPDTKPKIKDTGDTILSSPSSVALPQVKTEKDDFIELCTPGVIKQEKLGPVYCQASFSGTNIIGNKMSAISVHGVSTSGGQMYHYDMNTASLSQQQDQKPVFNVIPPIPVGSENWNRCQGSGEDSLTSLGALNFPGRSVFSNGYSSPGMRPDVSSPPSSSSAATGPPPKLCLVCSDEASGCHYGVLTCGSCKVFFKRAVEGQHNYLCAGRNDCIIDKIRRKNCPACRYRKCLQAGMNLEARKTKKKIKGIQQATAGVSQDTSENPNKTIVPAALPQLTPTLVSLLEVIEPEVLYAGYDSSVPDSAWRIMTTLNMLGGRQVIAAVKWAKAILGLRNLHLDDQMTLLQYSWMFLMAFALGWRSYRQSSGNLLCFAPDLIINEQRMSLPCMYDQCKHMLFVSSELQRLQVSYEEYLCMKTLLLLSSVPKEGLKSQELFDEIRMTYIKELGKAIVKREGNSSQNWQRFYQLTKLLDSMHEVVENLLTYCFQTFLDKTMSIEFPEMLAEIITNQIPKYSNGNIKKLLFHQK
Text: as §1
For assessment of the effect of flavones on glucocorticoid receptors, T47D (A1-2) cells were maintained in Minimal Essential Medium, 10% Fetal Bovine Serum (FBS), 0.2 mg/mL G418, penicillin (100 U/mL), and streptomycin (100 μg/mL). For experiments, medium was removed, and cultures rinsed with Phosphate-Buffered Saline (PBS) + 1.0 mM EDTA (PBSE), detached with trypsin, pelleted, and resuspended in medium to a concentration of 500,000 cells/mL. Aliquots of cell suspension, 100 microliters/well, were transferred into a 96-well, white, flat-bottomed plate and allowed to attach for 24 h. The following day, each well was treated with a 50 microliter aliquot of a test compound diluted in medium. Controls received medium containing DMSO diluted in the same way. For hormone treatment, dexamethasone was diluted in medium and added as 50 microliter aliquots so that the final volume in each well was 200 microliters. The final concentration of dexamethasone was 1.0 nM. Controls received medium without hormone. Hormone treatment was for 20 h at which time cells were harvested for assay of alkaline phosphatase and luciferase.
as §2

[2] = 4 µM, AP (alkaline phosphatase), read-out: % Inhibition of GR Induction
[3] = 4 µM, LUC (luciferase), read-out: % Inhibition of GR Induction
[4] = 8 µM, AP (alkaline phosphatase), read-out: % Inhibition of GR Induction
[5] = 8 µM, LUC (luciferase), read-out: % Inhibition of GR Induction
[6] = read-out: % Inhibition of GR Induction, 4 µM, AP (alkaline phosphatase)
[7] = read-out: % Inhibition of GR Induction, 4 µM, LUC (luciferase)
[8] = read-out: % Inhibition of GR Induction, 8 µM, AP (alkaline phosphatase)
[9] = read-out: % Inhibition of GR Induction, 8 µM, LUC (luciferase)

| Structure (SMILES) | inhibition at 1 µM (human AR; 1 µM, R1881 1.0 nM) [%] | inhibition at 4 µM (human AR; 4 µM, R1881 1.0 nM) [%] | inhibition at 4 µM [1, 2] [%] | inhibition at 4 µM [1, 3] [%] | inhibition at 8 µM [1, 4] [%] | inhibition at 8 µM [1, 5] [%] | also measured |
| --- | --- | --- | --- | --- | --- | --- | --- |
| O=c1cc(-c2ccc(O)c(O)c2)oc2ccccc12 [3′,4′-dihydroxyflavone] | 40 | 75 | -15 | -2 | 38 | -6 |  |
| O=c1cc(-c2ccc(O)cc2)oc2ccccc12 [4′-hydroxyflavone] | 29 | 65 | 49 | -43 | 49 | -49 |  |
| O=c1cc(-c2ccc(O)c(O)c2)oc2cccc(O)c12 [5,3′,4′-trihydroxyflavone] |  |  |  |  |  |  | inhibition at 1 µM (human AR): 29%; inhibition at 4 µM (human AR): 91%; inhibition at 4 µM [1, 6]: 27%; inhibition at 4 µM [1, 7]: -16%; inhibition at 8 µM [1, 8]: 40%; inhibition at 8 µM [1, 9]: -24% |
| O=c1cc(-c2ccc(O)cc2)oc2cccc(O)c12 [5,4′-dihydroxyflavone] | 77 | 97 | 34 | 13 | 33 | 13 | IC50 (human AR; R1881, read-out: IC50, AR antagonism): ~500 nM |
| O=c1cc(-c2cc(O)c(O)c(O)c2)oc2cc(O)cc(O)c12 [5,7,3′4′,5′-pentahydroxyflavone] |  |  |  |  |  |  | % Inhibition of AR-Mediated Gene Induction (human AR; 1 µM, R1881 1.0 nM): −8%; % Inhibition of AR-Mediated Gene Induction (human AR; 4 µM, R1881 1.0 nM): 24%; % Inhibition of GR Induction ([1]; 4 µM, AP (alkaline phosphatase)): −19%; % Inhibition of GR Induction ([1]; 4 µM, LUC (luciferase)): 5%; % Inhibition of GR Induction ([1]; 8 µM, AP (alkaline phosphatase)): 46%; % Inhibition of GR Induction ([1]; 8 µM, LUC (luciferase)): −25% |
| O=C1CC(c2ccc(O)c(O)c2)Oc2cc(O)cc(O)c21 (stereo not shown) [5,7,3′,4′-tetrahydroxyflavanone] |  |  |  |  |  |  | inhibition at 1 µM (human AR): 13%; inhibition at 4 µM (human AR): 24%; inhibition at 4 µM [1, 6]: 4%; inhibition at 4 µM [1, 7]: 5%; inhibition at 8 µM [1, 8]: -4%; inhibition at 8 µM [1, 9]: 18% |
| O=c1cc(-c2ccc(O)c(O)c2)oc2cc(O)cc(O)c12 [5,7,3′,4′-tetrahydroxyflavone] | -20 | 67 | 33 | -8 | 55 | -3 |  |
| COc1ccc([C@@H]2CC(=O)c3c(O)cc(O)cc3O2)cc1O [5,7,3′-triOH, 4′methoxyflavanone] |  |  | 1 |  | 51 | 15 | inhibition at 1 µM (human AR): -28%; inhibition at 4 µM (human AR): -30% |
| O=C1CC(c2ccc(O)cc2)Oc2cc(O)cc(O)c21 (stereo not shown) [5,7,4′-trihydroxyflavanone] | -17 | 9 | 8 | 15 | 7 | 19 |  |
| O=c1c(-c2ccc(O)cc2)coc2cc(O)cc(O)c12 [5,7,4′-trihydroxyisoflavone] | 55 | 22 | 22 | -7 |  |  |  |
| O=c1cc(-c2ccccc2)oc2cc(O)cc(O)c12 [5,7-dihydroxyflavone] | -13 | 46 | 22 | 0 | 38 | -6 |  |
| O=c1cc(-c2ccc(O)cc2)oc2ccc(O)cc12 [6,4′-dihydroxyflavone] | 43 | 54 | 26 | -44 | 39 | -82 |  |
| O=c1cc(-c2ccc(O)c(O)c2)oc2cc(O)ccc12 [7,3′,4′-trihydroxyflavone] | -6 | 11 | 21 | -117 | 36 | -87 |  |
| O=c1cc(-c2ccc(O)cc2)oc2cc(O)ccc12 [7,4′-dihydroxyflavone] |  |  |  |  |  |  | inhibition at 1 µM (human AR): -18%; inhibition at 4 µM (human AR): -20%; inhibition at 4 µM [1, 6]: 47%; inhibition at 4 µM [1, 7]: -92%; inhibition at 8 µM [1, 8]: 64%; inhibition at 8 µM [1, 9]: -38% |
| O=c1c(-c2ccc(O)cc2)coc2cc(O)ccc12 [7,4′-dihydroxyisoflavone] |  | 24 |  |  | 5 | -52 |  |
| O=c1cc(-c2ccccc2)oc2ccccc12 [flavone] | -12 | 55 | 13 | 4 | 34 | -24 |  |
